Experimental data as given in ChEMBL document CHEMBL3758137 (Eur J Med Chem, 2016).

What was measured:
[1] = molecular target: Hepatocyte growth factor receptor (Homo sapiens, UniProt P08581); test: Inhibition of recombinant c-Met (unknown origin) using poly (Glu,Tyr)4:1 as substrate after 60 mins by ELISA
[2] = Antiproliferative activity against human EBC1 cells after 72 hrs by SRB assay; conditions: EBC-1, 72 h
[3] = Solubility of compound in HBSS/HEPES buffer at pH 6.8 by nephelometric analysis in presence of 0.1% BSA; assay type: physicochemical; conditions: HBSS/HEPES buffer with 0.1% BSA
[4] = Solubility of compound in TRIS buffer by nephelometric analysis in presence of 0.1% BSA; assay type: physicochemical; conditions: TRIS buffer with 0.1% BSA
Liver microsome = test: Intrinsic clearance in human liver microsomes at 0.1 uM after 7 to 60 mins by LC-MS/MS analysis; assay type: ADME
[5] = Intrinsic clearance in mouse liver microsomes at 0.1 uM after 7 to 60 mins by LC-MS/MS analysis; assay type: ADME
[6] = AUC (0 to 8 hrs) in mouse plasma at 10 mg/kg, po; assay type: ADME, organism-based; set-up: dose 10 mg/kg, time < 8 hr, route oral
[7] = molecular target: Macrophage-stimulating protein receptor (Homo sapiens, UniProt Q04912); test: Inhibition of recombinant human Ron using poly (Glu,Tyr)4:1 as substrate after 60 mins by ELISA
[8] = molecular target: T1, Tyrosine-protein kinase Mer (Homo sapiens, UniProt Q12866); test: Inhibition of recombinant human Mer using poly (Glu,Tyr)4:1 as substrate after 60 mins by ELISA
T1 sequence (Q12866 whole entry): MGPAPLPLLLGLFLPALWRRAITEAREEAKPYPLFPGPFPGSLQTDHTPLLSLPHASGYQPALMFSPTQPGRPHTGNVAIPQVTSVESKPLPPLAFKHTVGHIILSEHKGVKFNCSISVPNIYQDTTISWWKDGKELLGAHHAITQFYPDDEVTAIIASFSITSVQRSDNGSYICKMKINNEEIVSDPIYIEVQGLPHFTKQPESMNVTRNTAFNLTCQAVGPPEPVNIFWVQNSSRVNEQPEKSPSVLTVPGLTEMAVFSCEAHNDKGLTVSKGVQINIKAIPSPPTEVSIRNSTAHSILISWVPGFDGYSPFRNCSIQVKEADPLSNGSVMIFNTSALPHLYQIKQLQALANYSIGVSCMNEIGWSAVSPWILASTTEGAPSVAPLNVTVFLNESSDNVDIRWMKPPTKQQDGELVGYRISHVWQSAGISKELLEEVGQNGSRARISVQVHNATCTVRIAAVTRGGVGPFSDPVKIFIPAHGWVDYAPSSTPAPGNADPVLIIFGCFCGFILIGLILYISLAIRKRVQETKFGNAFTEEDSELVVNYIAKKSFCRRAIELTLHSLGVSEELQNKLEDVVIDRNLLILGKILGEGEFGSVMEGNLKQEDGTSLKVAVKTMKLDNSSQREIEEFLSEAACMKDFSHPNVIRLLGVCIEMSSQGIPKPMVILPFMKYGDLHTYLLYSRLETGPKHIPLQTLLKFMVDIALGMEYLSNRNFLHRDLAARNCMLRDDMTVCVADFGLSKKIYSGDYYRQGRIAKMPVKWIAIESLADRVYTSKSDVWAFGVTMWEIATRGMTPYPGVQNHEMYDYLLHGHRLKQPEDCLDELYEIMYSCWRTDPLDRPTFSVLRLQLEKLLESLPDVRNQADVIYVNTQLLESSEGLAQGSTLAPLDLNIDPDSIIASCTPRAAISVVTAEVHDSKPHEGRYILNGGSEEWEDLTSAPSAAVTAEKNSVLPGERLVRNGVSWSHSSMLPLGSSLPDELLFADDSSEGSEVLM

[9] = molecular target: Insulin-like growth factor 1 receptor (Homo sapiens, UniProt P08069); test: Inhibition of recombinant human IGF1R using poly (Glu,Tyr)4:1 as substrate after 60 mins by ELISA
[10] = molecular target: Platelet-derived growth factor receptor beta (Homo sapiens, UniProt P09619); test: Inhibition of recombinant human PDGFR-beta using poly (Glu,Tyr)4:1 as substrate after 60 mins by ELISA
[11] = molecular target: Vascular endothelial growth factor receptor 2 (Homo sapiens, UniProt P35968); test: Inhibition of recombinant human KDR using poly (Glu,Tyr)4:1 as substrate after 60 mins by ELISA
[12] = molecular target: Vascular endothelial growth factor receptor 1 (Homo sapiens, UniProt P17948); test: Inhibition of recombinant human Flt-1 using poly (Glu,Tyr)4:1 as substrate after 60 mins by ELISA
[13] = molecular target: Tyrosine-protein kinase ABL1 (Homo sapiens, UniProt P00519); test: Inhibition of recombinant human ABL using poly (Glu,Tyr)4:1 as substrate after 60 mins by ELISA
[14] = Antitumor activity against human EBC1 cells xenografted in nude mouse assessed as tumor growth inhibition at 40 mg/kg, po qd administered for 21 days relative control; assay type: functional; conditions: EBC-1, po, 504 h, read-out: TGI
Mus musculus = test: Toxicity in nude mouse xenografted with human EBC1 cells assessed as body weight at 5 and 40 mg/kg, po qd administered for 21 days; assay type: organism-based; conditions: in vivo, 504 h

Sequence of Vascular endothelial growth factor receptor 2 (P35968 whole entry): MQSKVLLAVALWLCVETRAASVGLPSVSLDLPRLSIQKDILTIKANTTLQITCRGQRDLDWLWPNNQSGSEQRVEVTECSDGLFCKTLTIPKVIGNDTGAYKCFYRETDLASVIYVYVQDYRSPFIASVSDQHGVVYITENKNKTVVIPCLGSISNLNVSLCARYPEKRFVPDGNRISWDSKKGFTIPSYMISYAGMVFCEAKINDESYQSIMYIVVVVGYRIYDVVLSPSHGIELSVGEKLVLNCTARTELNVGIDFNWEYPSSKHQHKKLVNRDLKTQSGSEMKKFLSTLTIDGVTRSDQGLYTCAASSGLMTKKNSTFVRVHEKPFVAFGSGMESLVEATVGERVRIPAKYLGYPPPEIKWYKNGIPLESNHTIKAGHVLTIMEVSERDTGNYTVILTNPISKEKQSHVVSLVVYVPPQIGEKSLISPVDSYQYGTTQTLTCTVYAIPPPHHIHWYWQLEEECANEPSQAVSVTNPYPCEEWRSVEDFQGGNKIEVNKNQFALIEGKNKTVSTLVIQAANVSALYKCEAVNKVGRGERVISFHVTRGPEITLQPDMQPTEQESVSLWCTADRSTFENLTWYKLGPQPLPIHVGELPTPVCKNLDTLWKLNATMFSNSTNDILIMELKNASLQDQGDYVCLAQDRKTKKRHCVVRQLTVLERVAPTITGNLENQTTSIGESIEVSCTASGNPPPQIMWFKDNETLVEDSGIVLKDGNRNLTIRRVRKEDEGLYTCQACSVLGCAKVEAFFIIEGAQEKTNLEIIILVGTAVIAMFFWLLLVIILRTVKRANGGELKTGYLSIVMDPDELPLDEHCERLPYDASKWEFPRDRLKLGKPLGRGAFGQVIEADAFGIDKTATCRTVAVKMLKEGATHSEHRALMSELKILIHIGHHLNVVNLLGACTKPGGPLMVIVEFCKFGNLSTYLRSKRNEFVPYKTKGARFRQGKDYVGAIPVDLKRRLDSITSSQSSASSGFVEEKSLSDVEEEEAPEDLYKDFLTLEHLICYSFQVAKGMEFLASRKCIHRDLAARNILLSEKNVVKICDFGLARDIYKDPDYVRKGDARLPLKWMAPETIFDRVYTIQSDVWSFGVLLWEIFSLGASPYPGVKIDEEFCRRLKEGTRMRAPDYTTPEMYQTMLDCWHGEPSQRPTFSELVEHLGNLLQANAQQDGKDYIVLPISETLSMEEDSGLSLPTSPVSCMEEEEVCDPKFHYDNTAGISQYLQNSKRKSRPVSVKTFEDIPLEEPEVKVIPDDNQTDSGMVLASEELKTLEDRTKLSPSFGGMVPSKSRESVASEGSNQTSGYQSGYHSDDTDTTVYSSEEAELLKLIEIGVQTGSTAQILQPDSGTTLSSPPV
Sequence of Tyrosine-protein kinase ABL1 (P00519 whole entry): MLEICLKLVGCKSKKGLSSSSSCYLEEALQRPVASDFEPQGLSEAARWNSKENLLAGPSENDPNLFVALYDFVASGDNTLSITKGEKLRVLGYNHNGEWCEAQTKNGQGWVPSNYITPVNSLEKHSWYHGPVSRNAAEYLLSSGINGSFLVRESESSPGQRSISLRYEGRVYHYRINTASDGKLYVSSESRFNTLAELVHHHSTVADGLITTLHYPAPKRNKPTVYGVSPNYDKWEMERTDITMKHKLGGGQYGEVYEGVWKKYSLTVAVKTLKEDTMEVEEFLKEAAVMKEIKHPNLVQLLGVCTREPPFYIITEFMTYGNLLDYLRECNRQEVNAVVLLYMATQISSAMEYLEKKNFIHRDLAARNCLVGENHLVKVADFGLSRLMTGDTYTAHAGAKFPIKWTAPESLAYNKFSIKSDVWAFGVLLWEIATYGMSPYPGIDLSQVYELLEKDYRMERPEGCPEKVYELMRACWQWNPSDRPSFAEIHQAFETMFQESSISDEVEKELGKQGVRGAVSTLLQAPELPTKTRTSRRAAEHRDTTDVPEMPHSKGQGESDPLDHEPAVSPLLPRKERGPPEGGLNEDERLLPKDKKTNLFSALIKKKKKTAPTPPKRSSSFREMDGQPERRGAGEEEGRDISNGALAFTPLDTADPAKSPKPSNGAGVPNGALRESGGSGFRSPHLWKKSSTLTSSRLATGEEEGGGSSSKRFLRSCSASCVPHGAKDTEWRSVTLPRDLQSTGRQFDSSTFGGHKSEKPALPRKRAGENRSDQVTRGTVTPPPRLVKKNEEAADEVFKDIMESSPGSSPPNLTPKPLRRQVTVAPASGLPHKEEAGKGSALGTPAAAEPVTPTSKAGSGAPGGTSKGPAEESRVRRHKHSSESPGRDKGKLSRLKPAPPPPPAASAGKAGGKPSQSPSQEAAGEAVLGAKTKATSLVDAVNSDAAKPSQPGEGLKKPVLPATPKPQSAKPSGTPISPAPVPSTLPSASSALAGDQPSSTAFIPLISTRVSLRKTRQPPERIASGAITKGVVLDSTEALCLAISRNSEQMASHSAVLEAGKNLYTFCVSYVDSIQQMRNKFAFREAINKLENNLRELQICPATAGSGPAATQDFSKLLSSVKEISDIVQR
Sequence of Insulin-like growth factor 1 receptor (P08069 31-736 limits assumed): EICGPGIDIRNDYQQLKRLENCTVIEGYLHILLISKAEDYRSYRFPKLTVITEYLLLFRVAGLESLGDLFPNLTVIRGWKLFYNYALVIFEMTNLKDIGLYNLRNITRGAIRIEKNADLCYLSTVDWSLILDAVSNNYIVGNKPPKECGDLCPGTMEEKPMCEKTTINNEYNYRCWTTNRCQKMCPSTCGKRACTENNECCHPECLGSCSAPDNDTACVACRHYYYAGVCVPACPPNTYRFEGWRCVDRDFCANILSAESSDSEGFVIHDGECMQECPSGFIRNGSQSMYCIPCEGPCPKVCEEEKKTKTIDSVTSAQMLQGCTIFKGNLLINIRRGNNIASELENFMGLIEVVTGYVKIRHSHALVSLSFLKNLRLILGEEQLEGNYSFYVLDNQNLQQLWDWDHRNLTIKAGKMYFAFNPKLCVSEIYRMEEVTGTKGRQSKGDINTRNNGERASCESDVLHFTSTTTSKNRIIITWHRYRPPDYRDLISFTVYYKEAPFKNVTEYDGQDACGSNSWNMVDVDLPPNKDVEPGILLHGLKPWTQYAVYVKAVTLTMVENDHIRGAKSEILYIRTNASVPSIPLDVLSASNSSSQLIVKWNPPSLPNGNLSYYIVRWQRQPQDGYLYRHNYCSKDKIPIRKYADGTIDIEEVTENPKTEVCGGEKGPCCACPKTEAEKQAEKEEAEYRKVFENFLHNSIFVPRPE
Sequence of Insulin-like growth factor 1 receptor (P08069 741-1367 limits assumed): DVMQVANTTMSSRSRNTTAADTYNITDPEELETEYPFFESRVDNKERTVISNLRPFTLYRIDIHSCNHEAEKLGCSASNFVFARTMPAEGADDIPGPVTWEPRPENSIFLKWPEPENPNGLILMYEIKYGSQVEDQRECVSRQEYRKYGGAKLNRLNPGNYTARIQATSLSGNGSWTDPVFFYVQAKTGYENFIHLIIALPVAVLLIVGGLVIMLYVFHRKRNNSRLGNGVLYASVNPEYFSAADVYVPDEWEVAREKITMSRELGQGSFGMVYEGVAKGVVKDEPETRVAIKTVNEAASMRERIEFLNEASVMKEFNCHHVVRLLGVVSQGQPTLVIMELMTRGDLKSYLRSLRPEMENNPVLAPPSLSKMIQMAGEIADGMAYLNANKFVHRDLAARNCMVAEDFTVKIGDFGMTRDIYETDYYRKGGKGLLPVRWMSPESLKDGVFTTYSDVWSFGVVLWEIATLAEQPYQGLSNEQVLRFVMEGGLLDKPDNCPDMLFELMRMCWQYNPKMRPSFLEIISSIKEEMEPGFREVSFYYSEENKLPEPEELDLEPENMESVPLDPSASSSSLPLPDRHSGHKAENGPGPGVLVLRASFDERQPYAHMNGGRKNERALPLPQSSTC
Sequence of Platelet-derived growth factor receptor beta (P09619 whole entry): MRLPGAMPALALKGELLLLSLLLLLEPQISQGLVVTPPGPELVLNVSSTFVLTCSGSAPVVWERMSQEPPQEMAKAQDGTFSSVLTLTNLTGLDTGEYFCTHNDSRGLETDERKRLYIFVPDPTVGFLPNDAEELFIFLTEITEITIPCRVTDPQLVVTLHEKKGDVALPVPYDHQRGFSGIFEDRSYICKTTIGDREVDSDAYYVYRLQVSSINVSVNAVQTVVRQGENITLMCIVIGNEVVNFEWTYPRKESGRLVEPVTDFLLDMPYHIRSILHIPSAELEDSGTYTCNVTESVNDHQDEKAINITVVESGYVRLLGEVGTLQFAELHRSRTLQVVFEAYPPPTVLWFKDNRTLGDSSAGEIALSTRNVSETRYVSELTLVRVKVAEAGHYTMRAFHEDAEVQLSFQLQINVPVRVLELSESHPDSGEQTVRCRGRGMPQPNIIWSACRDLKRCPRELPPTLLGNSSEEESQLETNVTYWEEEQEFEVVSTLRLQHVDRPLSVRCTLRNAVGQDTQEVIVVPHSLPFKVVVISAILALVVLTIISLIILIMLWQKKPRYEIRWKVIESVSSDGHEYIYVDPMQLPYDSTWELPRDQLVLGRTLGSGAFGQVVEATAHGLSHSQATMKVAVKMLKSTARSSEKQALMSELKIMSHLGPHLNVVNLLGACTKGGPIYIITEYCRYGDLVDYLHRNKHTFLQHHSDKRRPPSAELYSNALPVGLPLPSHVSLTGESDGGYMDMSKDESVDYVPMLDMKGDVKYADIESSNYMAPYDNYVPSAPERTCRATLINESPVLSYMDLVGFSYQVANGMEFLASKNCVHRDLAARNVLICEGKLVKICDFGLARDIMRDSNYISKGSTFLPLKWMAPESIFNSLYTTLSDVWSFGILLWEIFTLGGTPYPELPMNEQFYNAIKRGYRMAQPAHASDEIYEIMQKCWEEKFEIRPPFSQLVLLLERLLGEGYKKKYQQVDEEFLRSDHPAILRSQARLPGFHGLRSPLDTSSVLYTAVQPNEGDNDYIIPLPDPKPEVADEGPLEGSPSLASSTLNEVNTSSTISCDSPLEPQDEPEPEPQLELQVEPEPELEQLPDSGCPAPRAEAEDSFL

**Q.** For Cn1cc(-c2cnc(Nc3cccc(Cn4nc(-c5cnn(C)c5)ccc4=O)c3)nc2)cn1, which IC50 [1] is on record?
**A.** 7.5 nM

**Q.** What about the IC50 [2] of the same compound?
**A.** 31.2 nM

**Q.** What about the solubility kinetic [3] of the same compound?
**A.** 51 µM

**Q.** What about the solubility kinetic [4] of the same compound?
**A.** 51 µM

**Q.** And the CLH (Liver microsome)?
**A.** 9 mL/min/g

**Q.** And the CLH [5]?
**A.** 16 mL/min/g

**Q.** And the AUC(0-t) at 8 h [6]?
**A.** 1750 ng·h/mL

**Q.** What about the IC50 [7] of the same compound?
**A.** > 1000 nM

**Q.** And the IC50 [8]?
**A.** > 1000 nM

**Q.** And the IC50 [9]?
**A.** > 1000 nM

**Q.** And the IC50 [10]?
**A.** > 1000 nM

**Q.** And the IC50 [11]?
**A.** > 1000 nM

**Q.** What about the IC50 [12] of the same compound?
**A.** > 1000 nM

**Q.** What about the IC50 [13] of the same compound?
**A.** > 1000 nM

**Q.** What about the inhibition in vivo at 40 mg/kg [14] of the same compound?
**A.** 68.6%

**Q.** What about the Activity (Mus musculus) of the same compound?
**A.** Non-toxic
